Data from patent US20220143050A1, “mTOR Inhibitor” (priority 2019, published 2022).
Structures can show the parent of a compound that is named as a salt.

What was measured:
[1] = tested on: LPS-stimulated peripheral blood mononuclear cell (PBMC); test: Regulation of cytokine profile in LPS-stimulated PBMC (BioPlex / ELISA); type: cell-based, human; conditions: for IL-10 production (ELISA) / IL-12p70 production (ELISA): PBMC pretreated 2 hours at various concentrations, 100 ng/mL LPS, supernatant 24 hours after LPS
Description: A peripheral blood mononuclear cell (PBMC) was separated from blood collected from a healthy volunteer (HV) and a chronic hepatitis B patient by a concentration gradient method. CD3+ T cell, CD19+B cell, CD56+NK cell, and CD14+ monocyte were respectively separated using magnetic antibodies.

Akt [2] = test: Phosphorylation of Akt in LPS-stimulated CD14+ monocyte (western blot); type: cell-based, human; conditions: 100 ng/mL LPS
HepG2 = test: Subcutaneous HepG2 tumor in immunodeficient mice (NOD-SCID); type: in vivo, mouse; conditions: 90 mg/kg intraperitoneally every 3 days; for subcutaneous tumor diameter: measured 6 weeks after, vs DMSO group, p<0.05 or p<0.005, data not disclosed
Method: 90 mg/kg of DMSO (negative control), ETV, ADV, and TDF were intraperitoneally administered to 6-week-old immunodeficient mice (NOD-SCID), respectively (5 animals in each of the groups), HepG2 (5×10^6 cells) was subcutaneously administered 1 week after the start of administration, and the subcutaneous tumor diameter was measured 6 weeks thereafter. Each drug was intraperitoneally administered every 3 days from the start to the end of observation.

[3] = tested on: liver cancer cell lines (HepG2, PLC/PRF/5, Huh7, Hep3B, SKHep-1, HLE); test: Antitumor effect in liver cancer cell lines, intracellular ATP amount (CellTiter-Glo); type: cell-based; conditions: cultured 72 hours, all of the cell lines; FIG. 12
[4] = tested on: human liver cancer cell line (HepG2); test: Phosphorylation of mTOR pathway proteins in HepG2 (western blot); type: cell-based; conditions: for phosphorylation of Akt and S6K and 4-EBP downstream thereof: HepG2, western blot
Method: After culturing the human liver cancer cell line (HepG2) in LAM, ETV, ADV, and TDF, phosphorylation of Akt in the mTOR pathway and S6K and 4-EBP downstream thereof was analyzed by western blot. Then, the phosphorylation of the above-mentioned proteins was suppressed in ADV and TDF in a dose-dependent manner, but there was no change in LAM and ETV.

MSK-1 = test: Phosphorylation of MSK-1 in LPS-stimulated CD14+ monocyte (western blot); conditions: 10 μM, 2 hours, 100 ng/mL LPS, 30 minutes after LPS, FIG. 4B
p70S6K = test: Phosphorylation of p70S6K in LPS-stimulated CD14+ monocyte (western blot); conditions: 100 ng/mL LPS, cell collected 2 hours after LPS, FIG. 4C
[5] = tested on: HT1080 cell stably expressing Akt 2-PH-EGFP; test: Transition of Akt to the cell membrane, fluorescent immunochemical staining / confocal microscope; type: cell-based; conditions: treated 2 hours, FIG. 7B
Method: AKT2-PH-EGFP tagged with HA was inserted into a pCSII-EF1α-MCS-IRES2-Blasticidin lentivirus vector. The lentivirus was infected with a HT1080 cell, and the cell was cultured in a DMEM solution containing […] of blasticidin. For observation of the intracellular migration of PH-EGFP, phosphorylated Akt, and Akt-PH-EGFP, after culturing HT1080 cell expressing each of them on a cover glass with DMSO, LAM, ADV, ETV, and TDF for 2 hours, the cell was fixed with 3.7% formalin, and thereafter nuclear staining of phosphorylated AKt (S473) and DAPI were performed to observe under a microscope.

GSK-3β = test: Phosphorylation of GSK-3β in LPS-stimulated CD14+ monocyte (western blot); type: cell-based, human; conditions: 2 hours treatment, 100 ng/mL LPS, 2 hours after LPS, FIG. 4E
PTEN = PTEN and pPTEN expression in CD14+ monocyte (western blot of cytosol and nuclear fractions); type: cell-based, human; conditions: pretreated 2 hours, FIG. 9
Description: The results obtained by further fractionating the cell into a cytosol fraction and a nuclear fraction, and performing western blot analysis on each of the obtained fractions are shown. Poly-ADP-ribose polymerase (PARP) is the internal control of a nuclear protein, and β-actin is the internal control of the cytosol fraction. The number n is at least 3.
For the separation of the cytoplasm and the cell membrane, a MEM-PERTMPlus cell membrane protein extraction kit was used, and the protocol indicated by the product was followed. Briefly speaking, the collected cell was washed and then reacted with a buffer (to perforate the cell membrane) at 4° C. for 10 minutes. After centrifuging at 16,000 g for 15 minutes, the supernatant was collected in a new tube (cytoplasmic component). The precipitate (cell membrane) in the tube in the previous step was washed once with the above-mentioned buffer, and then reacted with a cell membrane melting buffer at 4° C. for 30 minutes while occasionally applying vibration. Thereafter, after centrifuging at 16,000 g for 15 minutes, the supernatant was collected in a new tube (cell membrane component). The cytoplasmic and nuclear components were separated using a cytoplasm/nuclear extraction kit. […]

[6] = tested on: phosphatidylinositol-3 kinase and phosphoinositide-dependent kinase 1; test: Phosphorylation of proteins upstream of Akt in LPS-stimulated CD14+ monocyte (western blot); conditions: pretreated 2 hours, 100 ng/mL LPS, 2 hours after LPS, FIG. 7A
Method: An Akt inhibitor 2 (Akt-1/2) and bovine serum albumin (BSA) were respectively used as a positive control and a negative control.
The phosphorylation of several proteins upstream of Akt, such as phosphatidylinositol-3 kinase and phosphoinositide-dependent kinase 1, was analyzed.

LPS-stimulated PBMC = conditions: PBMC treated ex vivo with nucleic acid analog, IFN-α and LPS; FIG. 2
Method: In the case of interferon (IFN)-α alone, 10, 100, and 1000 U/mL were used.
Many types of cytokines in the culture supernatant were measured using a Bio-Plex Human Cytokine Panel (which enables measurement at one time).
Ex vivo treatment of the PBMC was performed with a nucleic acid analog, IFN-α, and LPS, and the levels of IL-10 and IL-12p70 in the supernatant were measured.

IFN-λ3 = conditions: hepatitis B patients taking the drug; cited from earlier work
[7] = tested on: mouse liver cancer cell lines (MHCF1 and MHCF5) and a mouse colon cancer cell line (CMT-93); test: Phosphorylation of Akt and GSK-3β in mouse cancer cell lines (western blot); type: cell-based; conditions: MHCF1, MHCF5 and CMT-93, western blotting; data not disclosed
intestinal cell = conditions: in vitro system; cited from earlier work
[8] = tested on: CD14+ monocyte transfected with rictor siRNA; test: IL-10 production in CD14+ monocyte after silencing rictor (mTORC2) by siRNA; type: cell-based, human; conditions: pretreated 2 hours, 100 ng/mL LPS, ELISA 24 hours after LPS, FIG. 10
Method: The results of confirming the expression levels of rictor, raptor, and β-actin 48 hours after transfection are shown. […] Chemically synthesized nucleotide siRNA including control siRNA was obtained from Santa Cruz (Dallas, Tex., USA). A cell was transfected with siRNA using a Nucleofector kit (Lonza, Cologne, Germany).

Akt1 = Akt1 (Homo sapiens, UniProt P31749); test: Surface plasmon resonance analysis of binding to Akt; conditions: Akt1 fixed on CM5 sensor chip, 25° C.; FIG. 7C
Method: The binding affinity of the peptide for the compound was analyzed using a surface plasmon resonance biosensor (Biacore X 100, GE Healthcare). Akt1 or BSA was fixed on the surface of a CM5 sensor chip using an amine coupling kit (GE Healthcare). Compounds at different concentrations, which were diluted with phosphate buffered saline containing 5% DMSO (10 mM phosphate buffer, 2.7 mM KCl, 137 mM NaCl, 0.05% surfactant P20, pH 7.4), were injected into the sensor chip at a flow rate of 20 μL/min at 25° C. for 120 seconds, and subsequently a buffer solution not containing the compounds was applied for 180 seconds. Kinetic parameters were determined by subtracting the bulk effect of DMSO using a reference flow cell and analyzing the data using Biacore X100 evaluation software (GE Healthcare).

ERK = conditions: CD14+ monocyte, 10 μM, 2 hours, 100 ng/mL LPS, 30 minutes after LPS; FIG. 4B
Akt [9] = test: Phosphorylation of Akt in LPS-stimulated PBMC (western blot); type: cell-based, human; conditions: various concentrations, cell recovered 2 hours after LPS, FIG. 7E
[10] = PBMC from HV, pretreated 2 hours with nucleic acid analog, then LPS, BioPlex cytokine assay, FIG. 1A

Chain of Akt1 (P31749 whole entry): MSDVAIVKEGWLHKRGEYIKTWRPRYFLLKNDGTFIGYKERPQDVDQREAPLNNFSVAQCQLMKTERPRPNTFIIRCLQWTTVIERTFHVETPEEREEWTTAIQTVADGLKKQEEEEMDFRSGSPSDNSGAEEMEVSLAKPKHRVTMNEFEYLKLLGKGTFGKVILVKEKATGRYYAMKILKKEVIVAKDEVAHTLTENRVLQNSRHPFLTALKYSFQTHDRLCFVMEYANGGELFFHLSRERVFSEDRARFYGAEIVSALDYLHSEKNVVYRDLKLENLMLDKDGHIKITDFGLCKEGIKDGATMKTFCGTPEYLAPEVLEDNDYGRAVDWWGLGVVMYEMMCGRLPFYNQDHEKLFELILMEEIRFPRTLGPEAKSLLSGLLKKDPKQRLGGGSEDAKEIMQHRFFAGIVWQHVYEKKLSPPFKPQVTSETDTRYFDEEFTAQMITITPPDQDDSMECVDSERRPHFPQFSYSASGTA

NC(=O)c1ncn([C@@H]2O[C@H](CO)[C@@H](O)[C@H]2O)c1N [AICAR, 5-Aminoimidazole-4-carboxamide-1-β-D-ribofuranoside]
IL-10 production (ELISA) [1]: inhibited
IL-12p70 production (ELISA) [1]: induced
phosphorylation of Akt (Akt [2]; CD14+ monocyte pretreated 2 hours at various concentrations, 2 hours after LPS, FIG. 11B): enhanced phosphorylation of Akt in a dose-dependent manner

C=C1[C@H](CO)[C@@H](O)C[C@@H]1n1cnc2c(=O)[nH]c(N)nc21 [ETV, entecavir]
LPS-induced cytokine production (IL-10, IL-12p70, and TNF-α) compared with DMSO [1, 10]: only the same effect as that of DMSO
subcutaneous tumor diameter (HepG2): not different
number of a survived cell (intracellular ATP amount) [3]: not recognized
phosphorylation of Akt and S6K and 4-EBP downstream thereof [4]: no change

Oc1ccc(-c2nc(-c3ccncc3)c(-c3ccc(F)cc3)[nH]2)cc1 [SB202198]
phosphorylation of MSK-1 (MSK-1): inhibited

CC(C)OC(=O)OCOP(=O)(CO[C@H](C)Cn1cnc2c(N)ncnc21)OCOC(=O)OC(C)C [TDF, tenofovir disoproxil fumarate]
dose dependence of the regulation of IL-12p70, IL-10 and TNF-α ([1]; LPS-stimulated PBMC, 1:3 dilution, FIG. 1C): dose dependent
LPS-induced IL-10 production [1, 10]: inhibited
LPS-induced IL-12p70 production [1, 10]: significantly induced
LPS-induced TNF-α production [1, 10]: significantly induced
tumor growth in one example of the group (HepG2): did not grow at all
subcutaneous tumor diameter (HepG2): suppressed
phosphorylation of p70S6K (p70S6K): inhibited
transposition of Akt-PH to the cell membrane ([5]; HT1080 cell, confocal microscope): significantly inhibited
phosphorylation of Akt (Ser 473) in HT-1080 cell ([5]; HT-1080 cell, anti-phospho-Akt staining): inhibited
number of a survived cell (intracellular ATP amount) [3]: significantly reduced
phosphorylation of GSK-3β (GSK-3β): inhibited
PTEN or pPTEN expression level (PTEN): did not affect
phosphorylation of Akt, dose dependence (Akt [2]; CD14+ monocyte, 1:3 dilution, FIG. 4D): inhibited the phosphorylation of Akt in a dose-dependent manner
phosphorylation of Akt (Akt [2]; CD14+ monocyte, cell collected 2 hours after LPS, FIG. 4C): inhibited
phosphorylation of proteins upstream of Akt (phosphatidylinositol-3 kinase and phosphoinositide-dependent kinase 1) [6]: did not inhibit
LPS-mediated IL-12p70 production in combination with IFN-α (LPS-stimulated PBMC): synergistically enhanced
phosphorylation of Akt and S6K and 4-EBP downstream thereof [4]: suppressed
phosphorylation of mTOR-related protein (Akt and GSK-3β (S9)) ([4]; HepG2 cell, western blotting, data not disclosed): suppressed
serum IFN-λ3 value (IFN-λ3): high value
phosphorylation of mTOR-related protein (Akt and GSK-3β (S9)) [7]: not recognized
IFN-λ3 induction (intestinal cell): induces
restoration of the decrease in IL-10 levels by silencing rictor [8]: not restored

C[C@H](Cn1cnc2c(N)ncnc21)OCP(=O)(O)OP(=O)(O)O [TFV, tenofovir monophosphate]
binding to the Akt protein (surface plasmon resonance biosensor) (Akt1): bound to the Akt protein in a dose-dependent manner

N#CC(=C(/N)Sc1ccccc1N)/C(C#N)=C(\N)Sc1ccccc1N [U0126]
phosphorylation of ERK (ERK): inhibited

CCCCCCCCCCCCCCCCCCOP(=O)([O-])OC1CC[N+](C)(C)CC1 [perifosine]
IL-10 production (ELISA) [1]: decreased
IL-12p70 production (ELISA) [1]: increased
phosphorylation of Akt (Akt [9]): inhibited phosphorylation of Akt in a dose-dependent manner
